The text below walks through data of US4550186A, “Binuclear copper (II) carboxylates formed from amine-carboxyboranes” (Duke University, priority 1983, dated 1985).

For one experiment, the target named is T1, dihydrofolate reductase (Mus musculus, UniProt P00375).
T1 sequence (P00375 1-187): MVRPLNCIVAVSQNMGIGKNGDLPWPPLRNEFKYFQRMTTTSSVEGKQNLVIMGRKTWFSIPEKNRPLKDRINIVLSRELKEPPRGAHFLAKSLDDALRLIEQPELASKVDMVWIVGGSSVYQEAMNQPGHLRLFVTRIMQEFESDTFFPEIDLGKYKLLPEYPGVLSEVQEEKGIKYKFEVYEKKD
The experiment can be described thus: In vitro dihydrofolate reductase activity. Type of experiment: biochemical. The note with it: 0.25 to 1.0 mM. On the procedure:
(§1) CF1 male mice (~30 g) were implanted with 2×10^6 Ehrlich ascites tumor cells, intraperitoneally on Day 0. Compound I was suspended by homogenation in 0.05% polysorbate.80-water and administered intraperitoneally at 10 and 20 mg/kg for 9 days to determine its effectiveness for inhibition of tumor growth. Mice were sacrificed on Day 10, and the ascites fluid was collected from the peritoneal cavity. The volume and ascrit (packed cell volume) were determined for each animal and the percent inhibition of tumor growth was calculated. For the metabolic studies, mice were treated on Days 8 and 9 with 10 mg/kg of Compound I, intraperitoneally. […]
(§2) Carbamyl phosphate synthetase activity was determined using the reaction medium of Kalman et al [Am. […] Citrulline formed from ornithine was measured at 490 nm by the method of Archibald [J. Biol. Chem., 156, 121 (1944)]. […] The ^14 CO2 generated in 15 min was trapped in 1M KOH and counted. Thymidylate synthetase activity was determined using a post-mitochondrial supernatant (9000 g×10 min) and 5 μCi of 5-^3 H-deoxyuridine monophosphate (14 Ci/mmol) according to the method of Kampf et al [ J. Med. Chem., 19, 903 (1976)]. ^14 C-Formate incorporation into purines was determined by the method of Spassova et al [Biochem. Pharmacol., 25, 923 (1976)] using 0.5 μCi of ^14 C-formic acid (52.0 mCi/mmol). […] The Rf value for xanthine monophosphate was scraped and counted. […]

A further experiment addresses T2, ribonucleotide reductase (Mus musculus, UniProt P07742+P11157).
T2 construct: endogenous in cells; host or cells: Ehrlich ascites tumor cells
T2 sequence (P07742 1-792): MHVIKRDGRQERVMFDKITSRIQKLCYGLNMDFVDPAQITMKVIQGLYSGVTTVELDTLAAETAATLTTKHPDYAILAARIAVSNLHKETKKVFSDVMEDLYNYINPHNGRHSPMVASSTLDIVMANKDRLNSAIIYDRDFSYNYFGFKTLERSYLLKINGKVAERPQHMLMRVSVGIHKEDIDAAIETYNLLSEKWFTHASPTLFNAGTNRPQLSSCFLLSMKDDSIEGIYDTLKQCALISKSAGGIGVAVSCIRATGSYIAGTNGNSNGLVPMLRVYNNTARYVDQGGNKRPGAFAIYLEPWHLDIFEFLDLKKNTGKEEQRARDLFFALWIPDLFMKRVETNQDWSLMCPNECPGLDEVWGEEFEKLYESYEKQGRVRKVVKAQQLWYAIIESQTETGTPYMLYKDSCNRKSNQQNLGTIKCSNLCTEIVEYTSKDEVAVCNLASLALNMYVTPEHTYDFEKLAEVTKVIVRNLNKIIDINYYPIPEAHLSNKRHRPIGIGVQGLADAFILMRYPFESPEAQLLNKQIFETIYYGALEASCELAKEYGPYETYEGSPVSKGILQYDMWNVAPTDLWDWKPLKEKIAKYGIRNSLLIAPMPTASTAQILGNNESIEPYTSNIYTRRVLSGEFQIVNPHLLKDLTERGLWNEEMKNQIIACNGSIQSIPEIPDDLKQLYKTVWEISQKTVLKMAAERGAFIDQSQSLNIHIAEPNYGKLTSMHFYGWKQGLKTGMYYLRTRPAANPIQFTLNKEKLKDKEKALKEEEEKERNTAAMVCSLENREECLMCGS
T2 sequence (P11157 1-390): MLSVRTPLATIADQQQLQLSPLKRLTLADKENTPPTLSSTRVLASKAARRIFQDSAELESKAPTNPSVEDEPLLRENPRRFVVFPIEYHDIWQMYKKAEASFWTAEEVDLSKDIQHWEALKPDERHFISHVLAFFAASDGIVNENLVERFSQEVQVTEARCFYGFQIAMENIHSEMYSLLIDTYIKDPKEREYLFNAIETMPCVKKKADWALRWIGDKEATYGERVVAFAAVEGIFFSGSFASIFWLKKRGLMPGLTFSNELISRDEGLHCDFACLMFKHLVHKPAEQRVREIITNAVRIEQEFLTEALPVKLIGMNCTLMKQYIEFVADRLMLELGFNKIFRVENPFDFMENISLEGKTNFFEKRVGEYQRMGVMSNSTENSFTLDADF
Nature of the experiment: In vivo ribonucleotide reductase activity. On the procedure: as §1, §2

Take “{Cu[(CH3)3 N.BH2 CO2 ]2.(CH3)3 N.BH2 COOH} [Compound I]”: the dihydrofolate reductase inhibition entry at dihydrofolate reductase is given as “not inhibited”. Further, on ribonucleotide reductase, the Ribonucleotide reductase activity entry is “unaffected”. Moreover, the Riboncleotide reductase activity on ribonucleotide reductase (10 mg/kg/day I.P. on Days 8 and 9) came to 101 ± 8 % Control.
